In ChEMBL document CHEMBL1136657, “Novel ether derivatives of mannopeptimycin glycopeptide antibiotic” (2003):
In brackets after ≈: the same amount, converted by molar mass.

What was measured:
Staphylococcus aureus [1] = experiment: Minimum inhibitory concentration against Staphylococcus aureus was determined; assay type: functional
Streptococcus = experiment: Minimum inhibitory concentration against Streptococcus species. was determined; assay type: functional
Enterococcus sp. = experiment: Minimum inhibitory concentration against Enterococcus species. was determined; assay type: functional
[2] = Minimum inhibitory concentration against SCN (GC 4548) was determined; assay type: functional
[3] = test system: Staphylococcus haemolyticus; experiment: Minimum inhibitory concentration against Staphylococcus haemolyticus (GC 4546) was determined
[4] = Minimum inhibitory concentration against SCN (GC 4551) was determined; assay type: functional
Bacillus cereus = experiment: Minimum inhibitory concentration against Bacillus cereus (GC 4561) was determined; assay type: functional
Pseudomonas aeruginosa = experiment: Minimum inhibitory concentration against Pseudomonas aeruginosa (GC 2214) control was determined; assay type: functional
Enterococcus faecalis [5] = experiment: Minimum inhibitory concentration against Enterococcus faecalis (GC 6189) was determined; assay type: functional
Staphylococcus aureus [6] = experiment: Minimum inhibitory concentration against Staphylococcus aureus (GC 3051) was determined; assay type: functional
Streptococcus pyogenes = experiment: Minimum inhibitory concentration against Streptococcus pyogenes (GC 4563) was determined; assay type: functional
Enterococcus faecalis [7] = experiment: Minimum inhibitory concentration against Enterococcus faecalis (GC 3059) was determined; assay type: functional
Staphylococcus aureus [8] = experiment: Minimum inhibitory concentration against Staphylococcus aureus (GC 4545) was determined; assay type: functional
Staphylococcus aureus [9] = experiment: Minimum inhibitory concentration against Staphylococcus aureus (GC 4541 was determined; assay type: functional
Escherichia coli [10] = experiment: Minimum inhibitory concentration against Escherichia coli (GC 2203) was determined; assay type: functional
Enterococcus faecalis [11] = experiment: Minimum inhibitory concentration against Enterococcus faecalis (GC 4553) was determined; assay type: functional
Enterococcus faecium [12] = experiment: Minimum inhibitory concentration against Enterococcus faecium (GC 4556) was determined; assay type: functional
Staphylococcus aureus [13] = experiment: Minimum inhibitory concentration against Staphylococcus aureus (GC 4543) was determined; assay type: functional
[14] = Minimum inhibitory concentration against SCN (GC 6257) was determined; assay type: functional
[15] = Minimum inhibitory concentration against SCN (GC 4547) was determined; assay type: functional
Candida albicans = experiment: Minimum inhibitory concentration against Candida albicans GC 3066 was determined; assay type: functional
Enterococcus faecalis [16] = experiment: Minimum inhibitory concentration against Enterococcus faecalis (GC 2691) was determined; assay type: functional
Streptococcus pneumoniae [17] = experiment: Minimum inhibitory concentration against Streptococcus pneumoniae (GC 4565) was determined; assay type: functional
Enterococcus faecalis [18] = experiment: Minimum inhibitory concentration against Enterococcus faecalis (GC 4554) was determined; assay type: functional
[19] = Minimum inhibitory concentration against SCN (GC 4549) was determined; assay type: functional
Streptococcus agalactiae = experiment: Minimum inhibitory concentration against Streptococcus agalactiae (GC4564) was determined; assay type: functional
Staphylococcus aureus [20] = experiment: Minimum inhibitory concentration against Staphylococcus aureus (GC 3066) was determined; assay type: functional
Escherichia coli [21] = experiment: Minimum inhibitory concentration against Escherichia coli (GC 4564) was determined; assay type: functional
Micrococcus luteus = experiment: Minimum inhibitory concentration against Sarcina lutea (GC 4562) was determined; assay type: functional
Enterococcus faecalis [22] = experiment: Minimum inhibitory concentration against Enterococcus faecalis (GC 4555) was determined; assay type: functional
Morganella morganii = experiment: Minimum inhibitory concentration against Morganella morganii (GC 4381) was determined; assay type: functional
Escherichia coli [23] = experiment: Minimum inhibitory concentration against Escherichia coli (GC 4560) was determined; assay type: functional
Staphylococcus aureus [24] = experiment: Minimum inhibitory concentration against Staphylococcus aureus (GC 4544) was determined; assay type: functional
Enterococcus faecium [25] = experiment: Minimum inhibitory concentration against Enterococcus faecium (GC 4557) was determined; assay type: functional
Enterococcus avium = experiment: Minimum inhibitory concentration against Enterococcus avium (GC 4558) was determined; assay type: functional
Staphylococcus aureus [26] = experiment: Minimum inhibitory concentration against Staphylococcus aureus (GC 2216) was determined; assay type: functional
Streptococcus pneumoniae [27] = experiment: Minimum inhibitory concentration against Streptococcus pneumoniae (GC 1894) was determined; assay type: functional
Enterococcus faecalis [28] = experiment: Minimum inhibitory concentration against Enterococcus faecalis (GC 4552) was determined; assay type: functional
Staphylococcus aureus [29] = experiment: Minimum inhibitory concentration against Staphylococcus aureus (GC 1131) was determined; assay type: functional
Staphylococcus aureus [30] = experiment: Minimum inhibitory concentration against Staphylococcus aureus (GC 4542) was determined; assay type: functional
Enterococcus faecium [31] = experiment: Minimum inhibitory concentration against Enterococcus faecium (GC 2243) was determined; assay type: functional
Enterococcus faecalis [32] = experiment: Minimum inhibitory concentration against Enterococcus faecalis (GC 2242) was determined; assay type: functional
Streptococcus pneumoniae [33] = experiment: Minimum inhibitory concentration against Streptococcus pneumoniae (GC 6242) was determined; assay type: functional
Staphylococcus aureus [34] = experiment: Minimum inhibitory concentration against Staphylococcus aureus smith; assay type: functional
Mus musculus = experiment: In vivo activity against Staphylococcus aureus smith was determined after iv administration in mice; assay type: functional; conditions: Mus musculus, iv; read-out: ED50

CC(C)CC(=O)O[C@H]1[C@H](O)[C@H](O)[C@@H](O[C@H]2[C@H](O)[C@H](O)[C@@H](Oc3ccc(C[C@H]4NC(=O)[C@H]([C@@H](C)c5ccccc5)NC(=O)CNC(=O)[C@H](CO)NC(=O)[C@@H]([C@@H](O)[C@@H]5CN=C(N)N5[C@H]5O[C@H](O)[C@@H](O)[C@H](O)[C@@H]5O)NC(=O)[C@H]([C@@H](O)[C@@H]5CN=C(N)N5)NC4=O)cc3)O[C@@H]2CO)O[C@@H]1CO
MIC (Staphylococcus aureus [1]): 4 µg/mL (≈ 2.93 µM) | MIC (Streptococcus): 2 µg/mL (≈ 1.46 µM) | MIC (Enterococcus sp.): 4 µg/mL (≈ 2.93 µM)

COc1ccc2cc(CO[C@H]3[C@H](O)[C@@H](CO)OC(O[C@H]4[C@H](O)[C@H](O)[C@@H](Oc5ccc(C[C@H]6NC(=O)[C@H]([C@@H](C)c7ccccc7)NC(=O)CNC(=O)[C@H](CO)NC(=O)[C@@H]([C@@H](O)[C@@H]7CN=C(N)N7[C@H]7O[C@H](O)[C@@H](O)[C@H](O)[C@@H]7O)NC(=O)[C@H]([C@@H](O)[C@@H]7CN=C(N)N7)NC6=O)cc5)O[C@@H]4CO)[C@H]3O)ccc2c1 (stereo not given in full)
MIC [2]: 1 µg/mL (≈ 0.689 µM) | MIC [3]: 1 µg/mL (≈ 0.689 µM) | MIC [4]: 2 µg/mL (≈ 1.38 µM) | MIC (Bacillus cereus): 2 µg/mL (≈ 1.38 µM) | MIC (Pseudomonas aeruginosa): > 128 µg/mL | MIC (Enterococcus faecalis [5]): 4 µg/mL (≈ 2.76 µM) | MIC (Staphylococcus aureus [6]): 2 µg/mL (≈ 1.38 µM) | MIC (Streptococcus pyogenes): 0.5 µg/mL (≈ 0.344 µM) | MIC (Enterococcus faecalis [7]): 8 µg/mL (≈ 5.51 µM) | MIC (Staphylococcus aureus [8]): 2 µg/mL (≈ 1.38 µM) | MIC (Staphylococcus aureus [9]): 2 µg/mL (≈ 1.38 µM) | MIC (Escherichia coli [10]): 128 µg/mL (≈ 88.2 µM) | MIC (Enterococcus faecalis [11]): 8 µg/mL (≈ 5.51 µM) | MIC (Enterococcus faecium [12]): 8 µg/mL (≈ 5.51 µM) | MIC (Staphylococcus aureus [13]): 2 µg/mL (≈ 1.38 µM) | MIC [14]: 1 µg/mL (≈ 0.689 µM) | MIC [15]: 2 µg/mL (≈ 1.38 µM) | MIC (Candida albicans): > 64 µg/mL | MIC (Enterococcus faecalis [16]): 8 µg/mL (≈ 5.51 µM) | MIC (Streptococcus pneumoniae [17]): 0.25 µg/mL (≈ 0.172 µM) | MIC (Enterococcus faecalis [18]): 8 µg/mL (≈ 5.51 µM) | MIC [19]: 1 µg/mL (≈ 0.689 µM) | MIC (Streptococcus agalactiae): 0.5 µg/mL (≈ 0.344 µM) | MIC (Staphylococcus aureus [20]): 2 µg/mL (≈ 1.38 µM) | MIC (Escherichia coli [21]): 128 µg/mL (≈ 88.2 µM) | MIC (Micrococcus luteus): 0.25 µg/mL (≈ 0.172 µM) | MIC (Enterococcus faecalis [22]): 8 µg/mL (≈ 5.51 µM) | MIC (Morganella morganii): > 128 µg/mL | MIC (Escherichia coli [23]): 1 µg/mL (≈ 0.689 µM) | MIC (Staphylococcus aureus [24]): 4 µg/mL (≈ 2.76 µM) | MIC (Enterococcus faecium [25]): 0.25 µg/mL (≈ 0.172 µM) | MIC (Enterococcus avium): 2 µg/mL (≈ 1.38 µM) | MIC (Staphylococcus aureus [26]): 2 µg/mL (≈ 1.38 µM) | MIC (Streptococcus pneumoniae [27]): 0.12 µg/mL (≈ 0.0827 µM) | MIC (Enterococcus faecalis [28]): 8 µg/mL (≈ 5.51 µM) | MIC (Staphylococcus aureus [29]): 4 µg/mL (≈ 2.76 µM) | MIC (Staphylococcus aureus [30]): 1 µg/mL (≈ 0.689 µM) | MIC (Enterococcus faecium [31]): 8 µg/mL (≈ 5.51 µM) | MIC (Enterococcus faecalis [32]): 8 µg/mL (≈ 5.51 µM) | MIC (Streptococcus pneumoniae [33]): 0.25 µg/mL (≈ 0.172 µM)

COc1ccc2cc(CO[C@H]3[C@H](O)[C@H](O)[C@@H](O[C@H]4[C@H](O)[C@H](O)[C@@H](Oc5ccc(C[C@H]6NC(=O)[C@H]([C@@H](C)c7ccccc7)NC(=O)CNC(=O)[C@H](CO)NC(=O)[C@@H]([C@@H](O)[C@@H]7CN=C(N)N7[C@H]7O[C@H](O)[C@@H](O)[C@H](O)[C@@H]7O)NC(=O)[C@H]([C@@H](O)[C@@H]7CN=C(N)N7)NC6=O)cc5)O[C@@H]4CO)O[C@@H]3CO)ccc2c1
MIC [2]: 0.12 µg/mL (≈ 0.0827 µM) | MIC [3]: 0.25 µg/mL (≈ 0.172 µM) | MIC [4]: 0.25 µg/mL (≈ 0.172 µM) | MIC (Bacillus cereus): 1 µg/mL (≈ 0.689 µM) | MIC (Pseudomonas aeruginosa): > 64 µg/mL | MIC (Enterococcus faecalis [5]): 1 µg/mL (≈ 0.689 µM) | MIC (Staphylococcus aureus [6]): 1 µg/mL (≈ 0.689 µM) | MIC (Streptococcus pyogenes): ≤ 0.06 µg/mL | MIC (Enterococcus faecalis [7]): 2 µg/mL (≈ 1.38 µM) | MIC (Staphylococcus aureus [8]): 0.5 µg/mL (≈ 0.344 µM) | MIC (Staphylococcus aureus [9]): 0.5 µg/mL (≈ 0.344 µM) | MIC (Escherichia coli [10]): 32 µg/mL (≈ 22 µM) | MIC (Enterococcus faecalis [11]): 2 µg/mL (≈ 1.38 µM) | MIC (Enterococcus faecium [12]): 2 µg/mL (≈ 1.38 µM) | MIC (Staphylococcus aureus [13]): 0.5 µg/mL (≈ 0.344 µM) | MIC [14]: 0.25 µg/mL (≈ 0.172 µM) | MIC [15]: 0.5 µg/mL (≈ 0.344 µM) | MIC (Candida albicans): > 64 µg/mL | MIC (Enterococcus faecalis [16]): 2 µg/mL (≈ 1.38 µM) | MIC (Streptococcus pneumoniae [17]): ≤ 0.06 µg/mL | MIC (Enterococcus faecalis [18]): 2 µg/mL (≈ 1.38 µM) | MIC [19]: 0.12 µg/mL (≈ 0.0827 µM) | MIC (Streptococcus agalactiae): ≤ 0.06 µg/mL | MIC (Staphylococcus aureus [20]): 1 µg/mL (≈ 0.689 µM) | MIC (Escherichia coli [21]): 32 µg/mL (≈ 22 µM) | MIC (Staphylococcus aureus [34]): 0.5 µg/mL (≈ 0.344 µM) | MIC (Micrococcus luteus): ≤ 0.06 µg/mL | MIC (Enterococcus faecalis [22]): 2 µg/mL (≈ 1.38 µM) | ED50 (Mus musculus): 0.06 mg/kg | MIC (Morganella morganii): 64 µg/mL (≈ 44.1 µM) | MIC (Escherichia coli [23]): 0.25 µg/mL (≈ 0.172 µM) | MIC (Staphylococcus aureus [24]): 1 µg/mL (≈ 0.689 µM) | MIC (Enterococcus faecium [25]): 1 µg/mL (≈ 0.689 µM) | MIC (Enterococcus avium): 2 µg/mL (≈ 1.38 µM) | MIC (Staphylococcus aureus [26]): 1 µg/mL (≈ 0.689 µM) | MIC (Streptococcus pneumoniae [27]): ≤ 0.06 µg/mL | MIC (Enterococcus faecalis [28]): 2 µg/mL (≈ 1.38 µM) | MIC (Staphylococcus aureus [29]): 0.5 µg/mL (≈ 0.344 µM) | MIC (Staphylococcus aureus [30]): 0.25 µg/mL (≈ 0.172 µM) | MIC (Enterococcus faecium [31]): 2 µg/mL (≈ 1.38 µM) | MIC (Enterococcus faecalis [32]): 2 µg/mL (≈ 1.38 µM) | MIC (Streptococcus pneumoniae [33]): ≤ 0.06 µg/mL
